Each structure is given as a SMILES string. ± gives the expanded uncertainty stated by the source.

The nature of this data set: activity coefficient (dimensionless); of the first substance listed, at infinite dilution; xn = mol fraction of the nth substance listed. Conditions: 101 kPa, Liquid, x1 = 0.

Take `C=CCCC` [1-pentene] + CCCCCCn1cc[n+](C)c1.O=S(=O)([O-])C(F)(F)F: the activity coefficient reads like this: (303.18 K, dilutor technique) 4.62 ± 0.23; (313.15 K, dilutor technique) 4.58 ± 0.23; (323.16 K, dilutor technique) 4.54 ± 0.23; (333.15 K, dilutor technique) 4.51 ± 0.23.

Take `C=CCCC` [1-pentene] + CCCCn1cc[n+](C)c1.O=S(=O)([O-])C(F)(F)F: the activity coefficient (303.45 K, Chromatography) was found to be 10.1 ± 0.69; the activity coefficient (313.15 K, Chromatography) turned out to be 9.69 ± 0.66; the activity coefficient (313.15 K, Dilutor technique) is 9.55 ± 0.48; the activity coefficient (323.15 K, Chromatography) is 9.48 ± 0.65; the activity coefficient (323.15 K, Dilutor technique) amounted to 9.34 ± 0.47; the activity coefficient (333.15 K, Chromatography) was determined as 9.18 ± 0.63. Moreover, the activity coefficient (333.18 K, Dilutor technique) was found to be 9.06 ± 0.45.

On to `CCCCCCC` [heptane] + CCCCCCCCn1cc[n+](C)c1.O=S(=O)([O-])C(F)(F)F, for which the activity coefficient is, setting by setting: (303.16 K, dilutor technique) 9.59 ± 0.48; (313.14 K, dilutor technique) 9.42 ± 0.47; (323.14 K, dilutor technique) 9.26 ± 0.46; (333.11 K, dilutor technique) 9.06 ± 0.45.

For `CCCCCCC` [heptane] + CCCCCCn1cc[n+](C)c1.O=S(=O)([O-])C(F)(F)F, the activity coefficient came to 19.2 ± 0.96 (303.16 K, dilutor technique); 18 ± 0.9 (313.18 K, dilutor technique); 17.4 ± 0.87 (323.16 K, dilutor technique); 16.6 ± 0.83 (333.14 K, dilutor technique).

As to `CCCCCCC` [heptane] + CCCCn1cc[n+](C)c1.O=S(=O)([O-])C(F)(F)F, the activity coefficient worked out at 45 ± 2.2 (303.12 K, Dilutor technique); 45 ± 3.1 (303.45 K, Chromatography); 42.4 ± 2.9 (313.15 K, Chromatography); 42.3 ± 2.1 (313.15 K, Dilutor technique); 39.8 ± 2 (323.12 K, Dilutor technique); 39.8 ± 2.7 (323.14 K, Chromatography). The activity coefficient is 37 ± 2.5 (333.15 K, Chromatography) and 36.9 ± 1.9 (333.21 K, Dilutor technique).

Consider `C=CCCCC` [hex-1-ene] + CCCCCCCCn1cc[n+](C)c1.O=S(=O)([O-])C(F)(F)F, for which the activity coefficient was determined as 4.68 ± 0.23 (303.13 K, dilutor technique); 4.61 ± 0.23 (313.13 K, dilutor technique); 4.57 ± 0.23 (323.16 K, dilutor technique); 4.53 ± 0.23 (333.16 K, dilutor technique).

Turning to `C=CCCCC` [hex-1-ene] + CCCCCCn1cc[n+](C)c1.O=S(=O)([O-])C(F)(F)F, the activity coefficient was 7.4 ± 0.37 (303.18 K, dilutor technique); 7.23 ± 0.36 (313.15 K, dilutor technique); 7.03 ± 0.35 (323.16 K, dilutor technique); 6.86 ± 0.34 (333.15 K, dilutor technique).

In the case of `C=CCCCC` [hex-1-ene] + CCCCn1cc[n+](C)c1.O=S(=O)([O-])C(F)(F)F, the activity coefficient by setting is: (303.17 K, Dilutor technique) 14.3 ± 0.71; (303.45 K, Chromatography) 14.4 ± 0.98; (313.15 K, Dilutor technique) 13.8 ± 0.69; (313.36 K, Chromatography) 14 ± 0.96; (323.14 K, Chromatography) 13.5 ± 0.92; (323.15 K, Dilutor technique) 13.5 ± 0.67. Also, the activity coefficient came out at 13 ± 0.89 (333.14 K, Chromatography) and 12.9 ± 0.65 (333.18 K, Dilutor technique).

As to `CCCCCC` [hexane] + CCCCCCCCn1cc[n+](C)c1.O=S(=O)([O-])C(F)(F)F, the activity coefficient is, setting by setting: (303.15 K, dilutor technique) 7.25 ± 0.36; (323.16 K, dilutor technique) 7.15 ± 0.36; (333.18 K, dilutor technique) 7.09 ± 0.35.

Consider `CCCCCC` [hexane] + CCCCCCn1cc[n+](C)c1.O=S(=O)([O-])C(F)(F)F, for which the activity coefficient reads like this: (303.11 K, dilutor technique) 12.8 ± 0.64; (313.16 K, dilutor technique) 11.9 ± 0.6; (323.17 K, dilutor technique) 11.4 ± 0.57; (333.17 K, dilutor technique) 10.9 ± 0.55.

Consider `CCCCCC` [hexane] + CCCCn1cc[n+](C)c1.O=S(=O)([O-])C(F)(F)F, for which the activity coefficient is, setting by setting: (303.16 K, Dilutor technique) 29 ± 1.4; (303.45 K, Chromatography) 29.8 ± 2; (313.15 K, Chromatography) 28.4 ± 1.9; (313.19 K, Dilutor technique) 27.7 ± 1.4; (323.14 K, Chromatography) 26.5 ± 1.8; (323.16 K, Dilutor technique) 25.9 ± 1.3. Besides, the activity coefficient by setting is: (333.15 K, Chromatography) 24.8 ± 1.7; (333.22 K, Dilutor technique) 24.5 ± 1.2.

For `C=CCCCCCC` [oct-1-ene] + CCCCCCCCn1cc[n+](C)c1.O=S(=O)([O-])C(F)(F)F, the activity coefficient (303.21 K, dilutor technique) turned out to be 8 ± 0.4; the activity coefficient (313.15 K, dilutor technique) was found to be 7.86 ± 0.39; the activity coefficient (323.14 K, dilutor technique) is 7.79 ± 0.39; the activity coefficient (333.12 K, dilutor technique) is 7.66 ± 0.38.

Consider `C=CCCCCCC` [oct-1-ene] + CCCCCCn1cc[n+](C)c1.O=S(=O)([O-])C(F)(F)F, for which the activity coefficient by setting is: (303.14 K, Chromatography) 15.4 ± 1.1; (303.16 K, dilutor technique) 15 ± 0.75; (313.15 K, Chromatography) 15 ± 1; (313.17 K, dilutor technique) 14.5 ± 0.73; (323.15 K, Chromatography) 14.6 ± 1; (323.15 K, dilutor technique) 14.2 ± 0.71. For the same compound, the activity coefficient is, setting by setting: (333.14 K, Chromatography) 14.3 ± 0.98; (333.18 K, dilutor technique) 13.7 ± 0.69.

In the case of `C=CCCCCCC` [oct-1-ene] + CCCCn1cc[n+](C)c1.O=S(=O)([O-])C(F)(F)F, the activity coefficient was 33.3 ± 0.67 (303.17 K, Dilutor technique); 33.7 ± 2.3 (303.45 K, Chromatography); 31.5 ± 0.63 (313.13 K, Dilutor technique); 32 ± 2.2 (313.15 K, Chromatography); 30.6 ± 2.1 (323.14 K, Chromatography); 29.9 ± 0.6 (323.16 K, Dilutor technique). The activity coefficient came out at 29.3 ± 2 (333.15 K, Chromatography) and 29 ± 0.58 (333.16 K, Dilutor technique).

On to `CCCCCCCC` [octane] + CCCCCCCCn1cc[n+](C)c1.O=S(=O)([O-])C(F)(F)F, for which the activity coefficient came to 12.6 ± 0.63 (303.16 K, dilutor technique); 12.2 ± 0.61 (313.14 K, dilutor technique); 12 ± 0.6 (323.14 K, dilutor technique); 11.7 ± 0.58 (333.11 K, dilutor technique).

With `CCCCCCCC` [octane] + CCCCCCn1cc[n+](C)c1.O=S(=O)([O-])C(F)(F)F, the activity coefficient by setting is: (303.14 K, Chromatography) 27.2 ± 1.9; (303.16 K, dilutor technique) 27.1 ± 1.4; (313.15 K, Chromatography) 25.8 ± 1.8; (313.18 K, dilutor technique) 25.5 ± 1.3; (323.15 K, Chromatography) 24.8 ± 1.7; (323.16 K, dilutor technique) 24.6 ± 1.2. Also, the activity coefficient runs as follows: (333.14 K, Chromatography) 23.8 ± 1.6; (333.14 K, dilutor technique) 23.4 ± 1.2.

Consider `CCCCCCCC` [octane] + CCCCn1cc[n+](C)c1.O=S(=O)([O-])C(F)(F)F, for which the activity coefficient (303.12 K, Dilutor technique) is 70.3 ± 3.5; the activity coefficient (303.15 K, Chromatography) was determined as 71.2 ± 4.9; the activity coefficient (313.15 K, Dilutor technique) was determined as 65.6 ± 3.3; the activity coefficient (313.36 K, Chromatography) came to 65.5 ± 4.5; the activity coefficient (323.12 K, Dilutor technique) is 60.1 ± 3; the activity coefficient (323.15 K, Chromatography) turned out to be 60.3 ± 4.1. The activity coefficient reads like this: (333.15 K, Chromatography) 55.2 ± 3.8; (333.21 K, Dilutor technique) 55.7 ± 2.8.

Turning to `CCCCC` [pentane] + CCCCn1cc[n+](C)c1.O=S(=O)([O-])C(F)(F)F, the activity coefficient was 18 ± 0.9 (313.19 K, Dilutor technique); 17.5 ± 0.87 (323.16 K, Dilutor technique); 16.8 ± 0.84 (333.22 K, Dilutor technique).

These data come from the NIST ThermoML archive (doi:10.1016/j.fluid.2010.02.010).
